We go through 4 compounds from ChEMBL document CHEMBL5131452, “Cell-based screening of extracts of natural sources to search for inhibitors of the ubiquitin-proteasome system and identification of proteasome inhibitors from the fungus Remotididymella sp” (Bioorg Med Chem Lett, 2022).

Active and inactive are the calls of the source. The calls are words filed in the database; no cut-off is given here.

For data set [1], the target named is T1, Proteasome Macropain subunit MB1 (Homo sapiens, UniProt P28074).
T1 sequence (P28074 whole entry): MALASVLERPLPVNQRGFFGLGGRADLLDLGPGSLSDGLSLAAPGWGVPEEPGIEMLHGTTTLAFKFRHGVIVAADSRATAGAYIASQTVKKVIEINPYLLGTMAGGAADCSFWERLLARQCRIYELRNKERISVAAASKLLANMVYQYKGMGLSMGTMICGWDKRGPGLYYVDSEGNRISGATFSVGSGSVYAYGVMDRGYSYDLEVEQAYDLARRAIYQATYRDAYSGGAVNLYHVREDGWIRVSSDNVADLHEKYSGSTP
Kind of data set: Inhibition of human constitutive proteasome subunit beta type-5 in human erythrocytes using fluorogenic substrate by UV-spectrometry. It counts as cell-based, Erythrocyte.

Data set [2] deals with HeLa. Description: Inhibition of UPS-mediated proteolysis in human HeLa cells expressing ODD-luciferase assessed as increase in luminescence at 2 to 16 uM using D-luciferin as substrate incubated for 4 hrs by luciferase reporter gene assay. The note with it: dose 2-16 µM. The class given is cell-based. On the technique in general: A reporter such as luciferase makes a cellular process visible.

Data set [3] deals with T2, Proteasome subunit beta type-8 (Homo sapiens, UniProt P28062).
T2 sequence (P28062 whole entry): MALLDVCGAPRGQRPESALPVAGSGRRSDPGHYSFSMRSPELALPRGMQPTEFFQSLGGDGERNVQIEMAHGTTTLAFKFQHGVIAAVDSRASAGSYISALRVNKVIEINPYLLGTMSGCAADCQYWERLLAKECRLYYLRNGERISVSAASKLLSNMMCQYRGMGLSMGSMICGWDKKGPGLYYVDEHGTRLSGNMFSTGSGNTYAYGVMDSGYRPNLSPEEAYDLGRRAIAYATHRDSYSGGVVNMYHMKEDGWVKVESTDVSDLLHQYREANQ
Description: Inhibition of human proteasome subunit beta type-5i using fluorogenic substrate by UV-spectrometry.

Data set [4] deals with T3, Proteasome subunit beta type-10 (Homo sapiens, UniProt P40306).
T3 sequence (P40306 whole entry): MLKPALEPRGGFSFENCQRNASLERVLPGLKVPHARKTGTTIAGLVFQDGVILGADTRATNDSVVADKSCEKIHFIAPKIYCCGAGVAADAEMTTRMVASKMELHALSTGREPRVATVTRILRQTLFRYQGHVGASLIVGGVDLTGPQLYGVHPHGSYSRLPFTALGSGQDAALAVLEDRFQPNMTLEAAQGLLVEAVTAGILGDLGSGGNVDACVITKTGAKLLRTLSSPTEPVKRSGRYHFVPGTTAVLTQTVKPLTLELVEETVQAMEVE
Kind of data set: Inhibition of human proteasome subunit beta type-2i using fluorogenic substrate by UV-spectrometry.

In data set [5] the target is T4, Proteasome subunit beta type-9 (Homo sapiens, UniProt P28065).
T4 sequence (P28065 whole entry): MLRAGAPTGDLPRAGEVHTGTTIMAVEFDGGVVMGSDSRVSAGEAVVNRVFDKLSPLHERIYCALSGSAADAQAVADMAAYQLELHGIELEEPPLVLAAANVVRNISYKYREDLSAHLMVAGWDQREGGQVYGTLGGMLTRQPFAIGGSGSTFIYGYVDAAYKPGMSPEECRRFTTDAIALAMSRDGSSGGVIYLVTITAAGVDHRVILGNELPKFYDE
Description: Inhibition of human proteasome subunit beta type-1i in using fluorogenic substrate by UV-spectrometry.

Data set [6] concerns HeLa. Description: Cytotoxicity against human HeLa cells expressing ODD-luciferase at 16 uM by MTT assay. The class given is toxicity, cell-based.
The test system of data set [7] is HeLa. Description: Inhibition of UPS-mediated proteolysis in human HeLa cells expressing ODD-luciferase assessed as fold change in increase in luminescence at 2 uM using D-luciferin as substrate incubated for 4 hrs by luciferase reporter gene assay. It counts as cell-based.
Data set [8] concerns HeLa. Description: Inhibition of UPS-mediated proteolysis in human HeLa cells assessed as increase in ubiquitinated proteins at 2 to 24 uM incubated for 24 hrs by western blot analysis. It counts as cell-based. The following applies: dose 2-24 µM. (In western blotting, separated proteins are transferred to a membrane and probed.)

As a reminder, the IC50 is the concentration that inhibits the measured activity by half. Lower therefore signals greater potency in that assay. `CCC(C)/C=C(\C)C1=Cc2cc3c(c(O)c2CO1)C(=O)C(O)(CC(C)=O)C(OC)=C3` (centres undefined): the IC50 was 46 µM in data set [1], 50 µM in data set [3], 30 µM in data set [4] and above 50 µM in data set [5]. The inhibition entry in the data set with HeLa [2] was “Active”.
In the case of `CCC(C)/C=C(\C)c1cc2c(cn1)C(=O)C1=C(N)C(=O)C(OC)=CC1=C2` (centres undefined), the concentration for half-maximal inhibition (IC50) in data set [1] was 22 µM; in data set [3] it was 20 µM; in data set [4] it was 33 µM; in data set [5] it was above 50 µM. Also, the inhibition entry in the data set on HeLa [2] is “Active”. Besides, the Activity entry in the data set on HeLa [6] is “Toxic”.
For the compound `CCC(C)/C=C(\C)C1=Cc2cc3c(c(O)c2CO1)C(=O)C(=O)C(OC)=C3` (centres undefined), the inhibition result in the data set with HeLa [2] and in the data set on HeLa [8] was “Active” throughout. In addition, the fold change (FC) with HeLa [7] turned out to be 2.5. The Activity entry with HeLa [6] is “Toxic”.
Consider `CCC(C)/C=C(\C)c1cc2c(cn1)C(=O)c1c(cc(OC)c(O)c1O)C2=O` (centres undefined), for which the IC50 in data set [1] was 16 µM; in data set [3], 40 µM; in data set [4], 43 µM; in data set [5], above 50 µM.
